Calls of active or inactive are those of the source.
Assays:
[1] = target: FAD-linked sulfhydryl oxidase ALR (Homo sapiens, UniProt P55789); experiment: ALR-catalysed DTT oxidation blockers – biochemical, H2O2 detection, luminescence, cherry-pick, dose response (AID 493248)
[2] = Luminescence Cell-Based Dose Confirmation HTS to Identify Activators of 5'UTR Stem-Loop Driven Alpha-Synuclein mRNA Translation in H4 Neuroglioblastoma Cells. [Related pubchem assays: 1829 (Project Summary), 1814 (Primary HTS)]; assay type: functional
[3] = Luminescence Cell-Based Dose Response HTS to Identify Activators of Luciferase Translation or Activity in H4 […] Cells. [Related pubchem assays: 1829 (Project Summary), 1814 (Primary HTS)]; assay type: functional
H4 = experiment: Luminescence Cell-Based Dose Response HTS to Identify Activators of 5'UTR Stem-Loop Driven Prion Protein mRNA Translation in H4 Neuroglioblastoma Cells. [Related pubchem assays: 1829 (Project Summary), 1814 (Primary HTS)]; assay type: functional; conditions: Homo sapiens
[4] = target: T1, Heat shock factor protein 1 (Mus musculus, UniProt P38532); experiment: enhancement of HSF1-driven luciferase signal – cell-based, NIH3T3, luminescence, dose retest, confirmation (AID 435004); assay type: functional;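 note: stress induced by proteasome inhibitor MG132 added 30 min after compound; luciferase reporter driven by HSF1 response element in NIH3T3 cells; actives raise luminescence as potentiators of the MG132 stress response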
T1 sequence (P38532 whole entry): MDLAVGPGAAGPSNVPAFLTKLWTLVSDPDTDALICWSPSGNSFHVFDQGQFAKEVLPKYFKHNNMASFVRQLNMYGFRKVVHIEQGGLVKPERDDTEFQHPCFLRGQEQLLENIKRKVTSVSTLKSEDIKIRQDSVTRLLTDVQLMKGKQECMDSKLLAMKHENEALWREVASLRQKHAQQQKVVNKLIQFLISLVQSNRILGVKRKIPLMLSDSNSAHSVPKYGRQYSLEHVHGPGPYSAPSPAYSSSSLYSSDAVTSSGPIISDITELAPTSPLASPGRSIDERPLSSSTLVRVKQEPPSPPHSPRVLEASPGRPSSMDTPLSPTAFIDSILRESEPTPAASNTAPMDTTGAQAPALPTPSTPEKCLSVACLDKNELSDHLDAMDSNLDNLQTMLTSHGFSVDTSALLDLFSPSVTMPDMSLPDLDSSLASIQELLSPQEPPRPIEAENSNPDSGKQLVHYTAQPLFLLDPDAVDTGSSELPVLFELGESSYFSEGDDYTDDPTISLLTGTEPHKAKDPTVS

[5] = target: T2, Replicative DNA helicase DnaB (Mycobacterium tuberculosis, UniProt P9WMR3); experiment: DnaB intein splicing inhibitors, dose response, biochemical, cell-free fluorescence (AID 449749); assay type: functional
T2 sequence (P9WMR3 whole entry): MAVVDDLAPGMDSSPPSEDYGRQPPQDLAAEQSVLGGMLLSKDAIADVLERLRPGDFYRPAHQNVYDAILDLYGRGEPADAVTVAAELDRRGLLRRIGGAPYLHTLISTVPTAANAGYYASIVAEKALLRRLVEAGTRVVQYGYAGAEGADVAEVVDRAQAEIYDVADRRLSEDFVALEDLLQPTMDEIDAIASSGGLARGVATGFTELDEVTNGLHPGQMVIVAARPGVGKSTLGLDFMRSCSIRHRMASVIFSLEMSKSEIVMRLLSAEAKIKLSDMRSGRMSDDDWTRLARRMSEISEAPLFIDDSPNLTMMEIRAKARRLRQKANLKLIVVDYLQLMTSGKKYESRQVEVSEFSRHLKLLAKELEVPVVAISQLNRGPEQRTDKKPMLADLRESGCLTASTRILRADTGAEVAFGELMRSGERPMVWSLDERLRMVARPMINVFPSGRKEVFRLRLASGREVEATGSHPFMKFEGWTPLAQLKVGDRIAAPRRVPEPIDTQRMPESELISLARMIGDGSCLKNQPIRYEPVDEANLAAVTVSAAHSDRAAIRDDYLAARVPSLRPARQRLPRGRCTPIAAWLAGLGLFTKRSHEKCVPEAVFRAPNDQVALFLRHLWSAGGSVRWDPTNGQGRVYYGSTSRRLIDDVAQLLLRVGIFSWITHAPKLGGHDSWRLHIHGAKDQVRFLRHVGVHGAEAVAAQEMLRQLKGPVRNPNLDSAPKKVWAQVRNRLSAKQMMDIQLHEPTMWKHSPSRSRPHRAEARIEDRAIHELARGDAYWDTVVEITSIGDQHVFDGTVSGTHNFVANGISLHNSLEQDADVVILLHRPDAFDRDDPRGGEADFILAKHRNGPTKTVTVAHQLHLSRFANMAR

[6] = HIV-1 AD8 envelope cell-cell fusion blockers – cherry-pick, dose response (AID 652062); assay type: functional, cell-based;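 note: luciferase signal from cell-cell fusion driven by HIV-1 clade B AD8 Env; potency is for inhibitors of fusion seen as a drop in luminescence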
Protein RecA = target: T3, Protein RecA (Mycobacterium tuberculosis, UniProt P9WHJ3); experiment: Fluorescence Cell-Free Homogeneous Dose Retest to Identify Inhibitors of RecA-Intein Splicing Activity. [Related pubchem assays (depositor defined):AID2097, AID2223, AID489010, AID492950]; assay type: functional
T3 sequence (P9WHJ3 whole entry): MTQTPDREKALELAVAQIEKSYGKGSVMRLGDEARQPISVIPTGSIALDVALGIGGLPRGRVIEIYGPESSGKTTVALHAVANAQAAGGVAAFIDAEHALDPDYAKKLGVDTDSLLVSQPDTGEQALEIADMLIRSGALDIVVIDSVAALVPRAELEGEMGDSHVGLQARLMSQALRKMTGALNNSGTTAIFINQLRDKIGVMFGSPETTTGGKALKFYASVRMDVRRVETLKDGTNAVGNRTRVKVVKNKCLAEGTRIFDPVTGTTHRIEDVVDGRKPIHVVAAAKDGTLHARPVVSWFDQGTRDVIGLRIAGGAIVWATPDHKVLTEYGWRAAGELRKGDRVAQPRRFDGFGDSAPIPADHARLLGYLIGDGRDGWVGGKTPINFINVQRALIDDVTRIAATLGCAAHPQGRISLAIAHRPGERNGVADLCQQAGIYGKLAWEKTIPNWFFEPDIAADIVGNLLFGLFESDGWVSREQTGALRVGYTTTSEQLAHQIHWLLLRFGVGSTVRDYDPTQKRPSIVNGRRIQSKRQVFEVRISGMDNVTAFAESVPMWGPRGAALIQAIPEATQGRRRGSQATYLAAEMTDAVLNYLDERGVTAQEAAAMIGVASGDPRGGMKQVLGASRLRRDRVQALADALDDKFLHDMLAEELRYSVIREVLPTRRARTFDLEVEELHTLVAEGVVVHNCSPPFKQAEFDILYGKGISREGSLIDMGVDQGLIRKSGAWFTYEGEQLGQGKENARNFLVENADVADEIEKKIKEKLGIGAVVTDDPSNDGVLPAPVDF

[7] = off-target signal loss in HeLa-CEM21 co-culture – HeLa F-luc CTL cells, cherry-picked, counter-screen for HIV-1 Env fusion inhibitor project, dose response (AID 652040); assay type: functional, cell-based;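 note: potency for signal decrease marking cytotoxic or nonspecific inhibition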
[8] = blockers of HIV-1 envelope-mediated cell-cell fusion – cherry-pick, dose response (AID 652057); assay type: functional, cell-based
[9] = blockers of HIV-1 ZM109 envelope-driven cell-cell fusion – HeLa effector, CEM target cells, luciferase, cherry-pick, dose response (AID 652058); assay type: functional, cell-based;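 note: luciferase signal from HIV-1 Env mediated cell-cell fusion of effector and target cells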
[10] = viability loss in CEM21 cells – cell-based, CellTiter-Glo luminescence, cherry-picked, cytotoxicity control for viral fusion inhibitor project, dose response (AID 652042); assay type: functional;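 note: potency for signal decrease meaning cytotoxicity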
[11] = NIH3T3 cell viability loss – ATP luminescence, mouse fibroblasts, counter-screen, dose response (AID 2010); assay type: functional, cell-based;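 note: cells exposed to compound for about 90 hours before reading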
cells [12] = assay type: functional, cell-based
[13] = fluconazole-exposed Candida albicans growth modulators – fluorescence, retest, confirmation (AID 2467); assay type: functional, cell-based
[14] = NIH-3T3 fibroblast cytotoxicity, dose response, cytotoxicity control, cell-based, fluorescence, Alamar Blue, secondary assay (AID 2327); assay type: functional;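 note: NIH-3T3 mouse fibroblasts cultured with fluconazole at 8 µg/mL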
[15] = Trypanosoma cruzi growth suppression in host cells – NIH3T3 host cells, beta-gal luminescence, confirmation (AID 2044); assay type: functional, cell-based;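 note: intracellular parasites grown in NIH/3T3 mouse fibroblasts as host cells; luminescent beta-galactosidase reporter signal from transgenic T. cruzi replicating inside host cells; inhibitors lower the luminescence signal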
Nonstructural protein 1 = Nonstructural protein 1 (Influenza A virus, UniProt Q194T2); assay type: functional, Influenza A virus (A/California/07/2009(H1N1))
Sequence of Nonstructural protein 1 (Q194T2 whole entry): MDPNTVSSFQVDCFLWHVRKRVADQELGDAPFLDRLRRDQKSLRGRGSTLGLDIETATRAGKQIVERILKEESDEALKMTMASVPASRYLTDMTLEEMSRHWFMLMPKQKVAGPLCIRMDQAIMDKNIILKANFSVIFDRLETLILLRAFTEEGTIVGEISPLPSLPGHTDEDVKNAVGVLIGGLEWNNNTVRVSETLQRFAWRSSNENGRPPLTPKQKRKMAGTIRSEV

cells [16] = assay type: functional, cell-based; remark: listed apart in the source
[17] = target: T4, Ubiquitin-conjugating enzyme E2 N (Homo sapiens, UniProt P61088); assay type: functional;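 note: Dose-response confirmation in a TR-FRET assay detecting UBC13-driven polyubiquitin chain formation, inhibition measured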
T4 sequence (P61088 whole entry): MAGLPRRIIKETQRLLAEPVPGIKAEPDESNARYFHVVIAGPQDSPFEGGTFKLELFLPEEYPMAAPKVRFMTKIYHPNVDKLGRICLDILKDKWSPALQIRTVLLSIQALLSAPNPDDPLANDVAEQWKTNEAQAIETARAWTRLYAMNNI

[18] = microbe, parasite or virus in culture; assay type: functional; conditions: Mycobacterium tuberculosis
INS1 = experiment: INS-1E survival protection against cytokine death – cell-based, luminescence, retest, dose response (AID 449756); assay type: functional; conditions: Rattus norvegicus;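 note: cell death triggered by IL-1 beta plus TNF-alpha plus IFN-gamma mixture; protective hits raise ATP signal compared with cytokine alone wells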
Vero = experiment: cells; assay type: functional; conditions: Chlorocebus sabaeus
[19] = Luminescence Cell-Based Dose Retest to Confirm Inhibitors of Cancer Stem Cells. [Related pubchem assays (depositor defined):AID2717, AID2721]; assay type: functional; conditions: Homo sapiens

Sequence of FAD-linked sulfhydryl oxidase ALR (P55789 whole entry): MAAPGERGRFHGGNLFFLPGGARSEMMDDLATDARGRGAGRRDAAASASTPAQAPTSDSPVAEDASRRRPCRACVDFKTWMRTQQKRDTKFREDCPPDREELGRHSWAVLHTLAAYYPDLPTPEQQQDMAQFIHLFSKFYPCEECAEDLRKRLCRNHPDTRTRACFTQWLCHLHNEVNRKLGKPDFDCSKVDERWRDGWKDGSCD

SMILES: Cc1nc(C(=O)N2CCCC(Nc3ccc(C)c(C)c3)C2)cs1 (stereo not drawn)
- AC50 [1]: 0.479 µM (active)

SMILES: O=C(Nc1cc(N2CCCCC2)ncn1)c1ccc(F)cc1
- EC50 [2]: > 120 µM (not active)
- EC50 [3]: 17.3 µM (active)
- EC50 (H4): 14.1 µM (active)

SMILES: Cc1ccc(S(=O)(=O)c2c(N)n(CCC(C)C)c3nc4ccccc4nc23)cc1
- EC50 [4]: > 260 µM (inactive)
- AC50 [5]: > 380 µM (inactive)
- AC50 [6]: 35.4 µM (active)
- EC50 (Protein RecA): 3.98 µM (active)
- AC50 [7]: 18.6 µM (active)
- AC50 [8]: 9.53 µM (active)
- AC50 [9]: 24.9 µM (active)
- AC50 [10]: 22.7 µM (active)

SMILES: Oc1ccc(CN2CCN(Cc3ccccc3)CC2)c2cccnc12
- EC50 [11]: > 60 µM (not active)
- EC50 (cells [12]): > 350 µM (not active)
- EC50 [13]: > 38 µM (not active)
- EC50 [14]: > 160 µM (inconclusive)
- EC50 [15]: 2.03 µM (active)
- IC50 (Nonstructural protein 1): 11.2 µM (active)
- EC50 (cells [16]): > 350 µM (not active)
- IC50 [17]: > 20 µM (inactive)

SMILES: Cc1cccc(CNc2ncnc3ccc(-c4ccc5c(c4)OCCO5)cc23)c1
- CC50 [18]: > 40 µM (active)
- AC50 [6]: 8.48 µM (active)
- AC50 [7]: > 70 µM (inactive)
- AC50 [8]: 27.9 µM (active)
- AC50 [9]: 5.84 µM (active)
- AC50 (INS1): 7.74 µM (active)
- AC50 [10]: 5.98 µM (active)

SMILES: NC1=NC[C@H](Cc2ccc(O)cc2)N1CCc1cc(C(F)(F)F)cc(C(F)(F)F)c1
- IC50 [17]: > 20 µM (inactive)

SMILES: COc1ccccc1N1CCN(S(=O)(=O)c2cccc(F)c2)CC1
- AC50 [1]: 28.8 µM (active)

SMILES: CCC1(C)NC(=O)N(CC(=O)N2CCC(Cc3ccccc3)CC2)C1=O (stereo not drawn)
- IC50 [17]: > 20 µM (inactive)

SMILES: Cc1nc(Cl)sc1C(=O)Nc1cc(F)cc(F)c1
- CC50 (Vero): > 25 µM (active)

SMILES: CCN(CC)CCOc1ccc(/C(=C(/Cl)c2ccccc2)c2ccccc2)cc1 [ENCLOMIPHENE]
- AC50 [19]: 1.6 µM (active)
- IC50 [17]: > 20 µM (inactive)

SMILES: N#CC1=C2Sc3ccccc3N2CCCC1=O
- EC50 [2]: 0.318 µM (active)
- EC50 [3]: 59 µM (active)
- EC50 (H4): 19.7 µM (active)

SMILES: CSc1nc(O)c(Nc2cccc(Cl)c2)c(O)n1
- AC50 [5]: 64.9 µM (active)
- EC50 (Protein RecA): 1.92 µM (active)
- AC50 [1]: 1.14 µM (active)

SMILES: NC(=O)NC(CC(=O)NNC(=O)c1ccccn1)c1ccccc1Cl (stereo not drawn)
- IC50 [17]: > 20 µM (inactive)

SMILES: COc1ccc(C(=O)Cn2c(C(C)=O)nc3ccccc32)cc1
- CC50 (Vero): 11.5 µM (active)

SMILES: O=C(/C=C/c1ccccc1Cl)c1ccc[nH]1
- EC50 [2]: 44.6 µM (active)
- EC50 [3]: 24.3 µM (active)
- EC50 (H4): 38.9 µM (active)

SMILES: O=C(O)c1cc(N/N=C/c2cccs2)ccc1Cl
- EC50 [2]: 19 µM (active)
- EC50 [3]: 0.632 µM (active)
- EC50 (H4): 3.38 µM (active)

SMILES: CCOC(=O)N1CCN(C(=O)CCN2C(=O)/C(=C\c3ccccc3OC)SC2=S)CC1
- CC50 (Vero): > 25 µM (active)

SMILES: COc1ccc(NC(=O)C[S+]([O-])CC(=O)Nc2cc(Cl)ccc2OC)cc1 (stereo not drawn)
- IC50 [17]: > 20 µM (inactive)

SMILES: CCc1ccc(CN2CCN(C(=O)c3cccc(OC)c3OC)CC2)cc1
- AC50 [6]: 11.8 µM (active)
- AC50 [7]: 26.2 µM (active)
- AC50 [8]: 1.66 µM (active)
- AC50 [9]: 2.01 µM (active)
- AC50 [10]: 67.5 µM (active)

SMILES: CC(=O)Nc1ccc2c(c1)nc1n2CCSC1
- AC50 [1]: 0.34 µM (active)

SMILES: CC(C)(C)NC(=O)C(c1ccncc1)N(Cc1ccco1)C(=O)c1ccc(-c2ccccc2)[nH]1 (stereo not drawn)
- EC50 [2]: 8.7 µM (active)
- EC50 [3]: > 30 µM (not active)
- EC50 (H4): 15.2 µM (active)
